Values of other authors, collected in patent US20160279057A1, “Azelastine Formulations For Intranasal Nebulization And Irrigation” (CMPD LICENSING, LLC, priority 2015, published 2016).
Structures can show the parent of a compound that is named as a salt.

CN1CCCC(n2nc(Cc3ccc(Cl)cc3)c3ccccc3c2=O)CC1 (stereo not drawn) [Azelastine hydrochloride, azelastine hydrochloride]
solubility in ethanol (ethanol): slightly soluble | solubility in glycerin (glycerin): slightly soluble | solubility in methanol (methanol): sparingly soluble | solubility in octanol (octanol): slightly soluble | solubility in propylene glycol (propylene glycol): sparingly soluble | solubility in water (water): sparingly soluble
